Experimental findings from patent publication US20250296961A1, “ANTIMICROBIAL PEPTIDES FOR REMINERALIZATION OF TEETH AND PREVENTION OF DENTAL CARIES” (The University of Hong Kong, priority 2021, published 2025) are described below.

Like-named read-outs stand apart in the source and are kept apart here. Residues, ends and D or L forms follow the SMILES beside them. No end group written: not given here.

For data set [1] the following is noted: for Peptide concentration incubated in human saliva: 37° C.; for Stability: summary grade.
Method: (§1) The collected saliva samples were centrifuged at 12,000 rpm for 20 min^21]. The supernatant was filtered to remove any debris. […] At 0, 0.5, 1, 2, 4, and 6 h, 40 uL solutions were taken from each sample and were analysed by High Performance Liquid Chromatography (HPLC-UV, 1525 Binary HPLC Pump, 2489 UV/Visible Detector, Waters, USA).
The nature of data set [2]: in vitro. The settings on record: mouse, MC3T3-E1 cells.
Method: (§2) Cells exposed to α-MEM without peptide was the control group. Cells viability after peptide exposure was evaluated by cell survival rate using Cell Counting Kit-8 assay (CCK-8 assay, Sigma-Aldrich, St. Louis, USA).
In data set [3] the test system is MC3T3-E1 cells.
Method: as §2
The nature of data set [4]: in vitro. The settings on record: human, human saliva (centrifuged, filtered supernatant).
Method: as §1
Data set [5] is described as follows: Stability of 8DSS-C8-P-113 hydrogel on tooth surface in flow water (BCA). It is filed as physicochemical. The conditions noted are these: 16 μM mL^−1, flow water 30 mL h-1, 2 h. On the procedure: 20 μL of 16 μM mL^−1 solution of 8DSS-C8-P-113 was applied to the tooth surface (N=5), and self-formed a layer of hydrogel sticking to the bottom of a hand-made instrument (FIG. 2J). To simulate the average human salivary flow rate, a stable flow of deionized water at a rate of 30 mL h-1 was provided using a Syringe Pump (LSP02-1B Double Channel inject/extract, China). The drained liquid, approximately 15 mL, was collected every 30 min. A sample of 100 μL of 16 μM mL^−1 solution of 8DSS-C8-P-113 was added to 15 mL of deionized water to serve as the 0 min sample. After 2 h, the drained liquids collected at 30 min, 60 min, 90 min, and 120 min were tested for their concentrations using Pierce BCA Protein Assay Kit (Rockford, IL).

In data set [6] the test system is S. mutans. Also on record: species or system Sprague-Dawley rats. The conditions noted are these: rat, in vivo. On the procedure:
The rat caries model was conducted under the protocol approved by the Ethics Committee of Anhui Medical University, China (ref. no. LLSC20232002) in accordance with national and international guidelines to minimise animal suffering. Ten male specific pathogen-free Sprague-Dawley rats aged 6 weeks were selected. The rats were provided with appropriate antibiotics (ampicillin, chloramphenicol, and carbencillin 1.0 g/kg/day) in the drinking water for 3 days. […] The infection was confirmed by oral swabbing and culturing on mitis salivarius-bacitracin (MSB) agar plates. The infected animals were randomly assigned into two groups (N=10): 16 μM mL^−1 of 8DSS-C8-P-113 in 10 mM HEPES (pH=7, n=5) and 10 mM HEPES (n=5, control group). Animals in each group were treated with 150 μL of the respective treatment topically using dental bonding brush for 2 min once daily for 4 weeks. […] The severity of caries was evaluated by the Keyes' scoring system which categorizes caries as enamel only (E), dentin exposed ¼ to ¾ (Ds), or more than ¾ dentin affected (Dm). The rats' weights were recorded to monitor for signs of toxicity. Additionally, various tissues from gingiva, palate, heart, liver, spleen, lung, and kidney were collected, stained with hematoxylin and eosin (H&E), and histopathologically analysed.

As for `CC(C)C[C@H](NC(=O)[C@H](CCCNC(=N)N)NC(=O)[C@H](Cc1ccccc1)NC(=O)[C@H](Cc1ccccc1)NC(=O)[C@@H](NC(=O)[C@H](COP(=O)(O)O)NC(=O)[C@@H](N)COP(=O)(O)O)[C@@H](C)O)C(=O)N[C@@H](Cc1ccccc1)C(=O)N[C@@H](CC(N)=O)C(=O)N[C@@H](CCCNC(=N)N)C(=O)N[C@@H](C)C(=O)N[C@@H](CCCCN)C(=O)N[C@@H](CCCNC(=N)N)C(=O)N[C@@H](Cc1c[nH]cn1)C(=O)N[C@@H](Cc1c[nH]cn1)C(=O)NCC(=O)N[C@@H](Cc1ccc(O)cc1)C(=O)N[C@@H](CCCCN)C(=O)N[C@@H](CCCNC(=N)N)C(=O)N[C@@H](CCCCN)C(=O)N[C@@H](Cc1ccccc1)C(=O)N[C@@H](Cc1c[nH]cn1)C(=O)O` [DPS-C8-P-113] (HELM PEPTIDE1{[N[C@@H](COP(=O)(O)O)C(=O)[*:2]].[O=C([C@H](COP(=O)(O)O)N[*:1])[*:2]].T.F.F.R.L.F.N.R.A.K.R.H.H.G.Y.K.R.K.F.H}$$$$V2.0), the “Peptide concentration incubated in human saliva” value turned out to be 1 mg/mL in data set [1] (0 h); 0.9818 mg/mL in data set [1] (0.5 h); 0.9785 mg/mL in data set [1] (1 h); 0.9504 mg/mL in data set [1] (2 h); 0.5388 mg/mL in data set [1] (4 h); 0.562 mg/mL in data set [1] (6 h). Also, the Stability result in data set [1] was “++”. Further, the viability at 24 h, 2 ×MBC in data set [2] worked out at 48%. Also, the Cytocompatibility entry in data set [3] is given as “+”. This molecule returned a fraction remaining at 6 h, 1 mg mL^−1 in data set [4] of 56.2%.
On to “DSSDSSDSSDSSDSSDSSDSSDSSTFFRLFNRAKRHHGYKRKFH [8DSS-C8-P-113]”, for which the “Peptide concentration incubated in human saliva” value in data set [1] (0 h) was 1 mg/mL; in data set [1] (0.5 h) it was 0.9942 mg/mL; in data set [1] (1 h), 0.987 mg/mL; in data set [1] (2 h), 0.9885 mg/mL; in data set [1] (4 h), 0.8991 mg/mL; in data set [1] (6 h) it was 0.894 mg/mL. Also, in data set [1], the Stability entry is “+++”. The “Hydrogel remaining on the tooth surface (of initial status)” value in data set [5] was “over 80%”; in data set [5] (listed as 8DSS-C8-P-113 hydrogel) it was “approximately 82.15%”. In data set [3], the Cytocompatibility result was “++”. The “Histopathology analysis (H&E)” value in data set [6] is reported as “No signs of inflammatory reaction, proliferative changes, or necrosis”. This molecule yielded a fraction remaining at 6 h, 1 mg mL^−1 in data set [4] of 89.4%.

By viability is commonly meant the share of living cells, or the viability signal relative to a control. Low values mean more harm to the cells, high ones less harm to the cells. One may read the fraction remaining as what is left of the initial amount, in per cent. Higher therefore signals less turnover.
